Data set [1] deals with JNK1. The experiment in a line: Western blot of proximal ascending aorta: JNK1 activation (Examples 6-8). It is filed as in vivo, mice. The source says: (§1) All mice were cared for under strict compliance with the Animal Care and Use Committee of the Johns Hopkins University School of Medicine. The Smad4 haploinsufficient mice were a generous gift from Dr. Chuxia Deng (NIH/NIDDK, Bethesda). The Fbn1^C1039G/+ line was maintained on a C57BL/6 background, allowing for valid comparisons. In order to further accommodate the potential for temporal- or background-specific variation in genetic or pharmacological manipulation experiments, all comparisons were made between contemporary littermates. Mice were checked daily for death and all mice found dead were immediately necropsied to assess for evidence of aortic dissection. Mice were killed with an inhalation overdose of halothane (Sigma-Aldrich, St. Louis). […] Following PBS infusion, mice analyzed for aortic histology had latex injected under low pressure into the left ventricular apex until it was visible in the descending abdominal aorta. […]
(§2) Protein was extracted using the reagents and protocol from a Total Protein Extraction Kit, in conjunction with a Protein Phosphatase Inhibitor Cocktail (Millipore, MA). […] Equal protein loading of samples was determined by a protein assay (BioRad, CA) and confirmed by probing with antibodies against β-Actin or GAPDH (Sigma, Mo.). […]
Background: Immunoblotting shows a protein as a band on a membrane.

Data set [2] deals with ERK1/2. The experiment in a line: Western blot of proximal ascending aorta: ERK1/2 activation (Examples 6-8). It is filed as in vivo, mice.
From the text: (§3) All mice were cared for under strict compliance with the Animal Care and Use Committee of the Johns Hopkins University School of Medicine. The Smad4 haploinsufficient mice were a generous gift from Dr. Chuxia Deng (NIH/NIDDK, Bethesda). The Fbn1^C1039G/+ line was maintained on a C57BL/6 background, allowing for valid comparisons. In order to further accommodate the potential for temporal- or background-specific variation in genetic or pharmacological manipulation experiments, all comparisons were made between contemporary littermates. Mice were checked daily for death and all mice found dead were immediately necropsied to assess for evidence of aortic dissection. Mice were killed with an inhalation overdose of halothane (Sigma-Aldrich, St. Louis). Mice underwent immediate laparotomy, descending abdominal aortic transection, and PBS (pH 7.4) infusion through the left ventricle to flush out the blood. For Western blot analysis, the proximal ascending aorta (root to right brachiocephalic trunk) was removed, flash frozen in liquid nitrogen and stored at −80° C. Following PBS infusion, mice analyzed for aortic histology had latex injected under low pressure into the left ventricular apex until it was visible in the descending abdominal aorta. The mice were then fixed for 24 hours in 10% buffered formalin, after which the heart and aorta were removed and stored in 70% ethanol.
(§4) Mouse monoclonal TGFβNAb (1d11; R&D Systems, Minneapolis) was reconstituted in PBS and administered via intraperitoneal injection 3 times a week at a dose of 5 mg/kg. Treatment was initiated at 1 month of age and continued for 2 months. IgG (Zymed Laboratories Inc, San Francisco) was reconstituted in PBS, and administered at a dose of 10 mg/kg as a control. […]
as §2

The subject of data set [3] is Smad2. The experiment in a line: Western blot of proximal ascending aorta: Smad2 activation (Examples 6-8). To be noted: Fbn1^C1039G/+ mice, RDEA119 trial, FIG. 16D. It is filed as in vivo.
From the text: as §1, §2

The test system of data set [4] is Fbn1^C1039G/+ mice. The experiment in a line: Aortic root and ascending aortic growth by echocardiography (Examples 6-8). Type of data set: in vivo.
From the text: as §3
Mouse monoclonal TGFβNAb (1d11; R&D Systems, Minneapolis) was reconstituted in PBS and administered via intraperitoneal injection 3 times a week at a dose of 5 mg/kg. Treatment was initiated at 1 month of age and continued for 2 months. IgG (Zymed Laboratories Inc, San Francisco) was reconstituted in PBS, and administered at a dose of 10 mg/kg as a control. SP600125 (Sigma-Aldrich, St. Louis) was reconstituted in 10% DMSO dissolved in PBS, and administered twice daily by intraperitoneal injection, at a dose of 30 mg/kg. Treatment was initiated at 1 month of age and continued for 2 months. 10% DMSO dissolved in PBS was administered as a control. RDEA119 was reconstituted in 10% 2-hydroxypropyl-beta-cyclodextrin (Sigma-Aldrich, St. Louis) dissolved in PBS, and administered twice daily by oral gavage at a dose of 25 mg/kg. Treatment was initiated at 2 months of age and continued for 2 months. 10% 2-hydroxypropyl-beta-cyclodextrin dissolved in PBS was administered as a control. Fasudil was dissolved in drinking water, and administered at a dose of 1 mg/kg body weight per day. Treatment was initiated at 2 months of age and continued for 4 months. Drinking water was administered as a control.
Nair hair removal cream was used on all mice the day prior to echocardiography. All echocardiograms were performed on awake, unsedated mice using the Visualsonics Vevo 660 V1.3.6 imaging system and a 30 MHz transducer. The aorta was imaged using a parasternal long axis view. Three separate measurements of the maximal internal systolic dimension at the sinus of Valsalva and proximal ascending aorta were made, and a mean was calculated. All imaging and measurements were performed by a cardiologist who was blinded to genotype and treatment arm. In the TGFβNAb and SP600125 trials, mice were imaged at 1 month (baseline) and 3 months of age, after which they were killed. In the RDEA119 trial, mice were imaged at 2 months (baseline) and 4 months of age, after which they were killed. In the fasudil trial, mice were imaged at 2 months (baseline) and 6 months of age, after which they were killed. Smad4 haploinsufficient mice were imaged at 1 month, and then every 2 months thereafter, until death or sacrifice.

The test system of data set [5] is p38. The experiment in a line: Western blot of proximal ascending aorta: p38 activation (Examples 6-8). It is filed as in vivo. The conditions noted are these: Fbn1^C1039G/+ mice, RDEA119 trial, FIG. 16D.
From the text: as §1, §2

The test system of data set [6] is ERK5. Put plainly: Western blot of proximal ascending aorta: ERK5 activation (Examples 6-8). It is filed as in vivo. To be noted: Fbn1^C1039G/+ mice, RDEA119 trial, FIG. 16D.
From the text: as §1, §2

A short description of data set [7]: Body weight at the end of the two month RDEA119 trial. It is filed as in vivo. To be noted: WT or Fbn1^C1039G/+ mice, FIG. 25. The method, then: (§5) Mouse monoclonal TGFβNAb (1d11; R&D Systems, Minneapolis) was reconstituted in PBS and administered via intraperitoneal injection 3 times a week at a dose of 5 mg/kg. Treatment was initiated at 1 month of age and continued for 2 months. IgG (Zymed Laboratories Inc, San Francisco) was reconstituted in PBS, and administered at a dose of 10 mg/kg as a control. SP600125 (Sigma-Aldrich, St. Louis) was reconstituted in 10% DMSO dissolved in PBS, and administered twice daily by intraperitoneal injection, at a dose of 30 mg/kg. Treatment was initiated at 1 month of age and continued for 2 months. 10% DMSO dissolved in PBS was administered as a control. RDEA119 was reconstituted in 10% 2-hydroxypropyl-beta-cyclodextrin (Sigma-Aldrich, St. Louis) dissolved in PBS, and administered twice daily by oral gavage at a dose of 25 mg/kg. Treatment was initiated at 2 months of age and continued for 2 months. 10% 2-hydroxypropyl-beta-cyclodextrin dissolved in PBS was administered as a control. Fasudil was dissolved in drinking water, and administered at a dose of 1 mg/kg body weight per day. Treatment was initiated at 2 months of age and continued for 4 months. Drinking water was administered as a control. […]

Data set [8] relates to WT mice. The experiment in a line: Aortic root growth by echocardiography, WT mice (Examples 6-8). Type of data set: in vivo.
From the text: as §3, §4
(§6) Nair hair removal cream was used on all mice the day prior to echocardiography. […] Three separate measurements of the maximal internal systolic dimension at the sinus of Valsalva and proximal ascending aorta were made, and a mean was calculated. […]

Data set [9] concerns S4^+/−:Fbn1^C1039G/+ mice. The experiment in a line: Survival (premature death due to aortic dissection). It is filed as in vivo.
From the text: as §3, with “ethanol. […]” for “ethanol.”

Data set [10] deals with S4^+/−:Fbn1^C1039G/+ mice. The experiment in a line: Aortic root and ascending aortic growth by echocardiography, Smad4 haploinsufficient MFS mice. Type of data set: in vivo.
From the text: as §3
as §5, with “months.” for “months. Drinking water was administered as a control.”
as §6

Data set [11] deals with abdominal aortic aneurysm induced by the periaortic application of calcium chloride. The conditions noted are these: prior work (Yoshimura et al. 2005), in association with reduced JNK1 activation; cited from earlier work.
Setting [12] is: Fbn1^C1039G/+ mice, RDEA119 trial, FIG. 16D.
The mark [13] stands for this setting: 25 mg/kg twice daily oral gavage, 2 to 4 months of age, FIG. 16C.
[14] abbreviates: RDEA119 trial, 2 months of treatment.
Where [15] appears, read: WT and Fbn1^C1039G/+ mice after two weeks of therapy, FIG. 24.
The mark [16] stands for this setting: 30 mg/kg twice daily i.p., 1 to 3 months of age, FIG. 23A.

“Also recorded” adds a separate entry of the source.

In the case of `COc1cc(F)c(F)c(Nc2ccc(I)cc2F)c1NS(=O)(=O)C1(C[C@H](O)CO)CC1` [RDEA119], in data set [1] (setting [12]), the JNK1 activation result is given as “unchanged”. Besides, the ERK1/2 activation entry in [2] (setting [12]) is “selective reduction in pERK1/2 signaling; also recorded: significant reduction in ERK1/2 activation”. The Smad2 activation result in [3] is listed as “unchanged”. The “Final absolute aortic root diameter” value was 1.94+/−0.07 mm in [4] (setting [13]) and 1.64+/−0.09 mm in data set [8] (setting [13]). The Aortic root growth entry in data set [4] (setting [14]) is on record as “selectively reduced growth; also recorded: significantly less than that of placebo-treated”; in data set [8] (setting [14]), “no significant effect”. In addition, the p38 activation entry in data set [5] was “unchanged”. The ERK5 activation entry in data set [6] is given as “unchanged”. In data set [7], the “Weight (somatic growth) at the end of the two month trial” value is on record as “does not significantly affect somatic growth; also recorded: did not significantly affect the weight”.

On to `O=C1c2ccccc2-c2n[nH]c3cccc1c23` [SP600125], for which, in data set [1] (setting [15]), the JNK1 activation result is “significant reduction in JNK1 activation; also recorded: reduction of JNK1 activation to levels below baseline”. Further, the ERK1/2 activation result in [2] (setting [15]) is “no change in ERK1/2 activation; also recorded: remained unaffected”. Also, in data set [4] (setting [16]), the “Final absolute aortic root diameter” value was 1.97+/−0.16 mm and the “Final absolute ascending aortic diameter” value was 1.38+/−0.06 mm. Further, the Aortic root growth result in data set [4] (SP600125 trial, versus placebo) is given as “decreased aortic root growth; also recorded: ameliorated their aortic root growth”. The “Mice still alive at 3 months of age” value in data set [9] (50% of placebo-treated had died) is given as “all”. Further, the “Premature death due to aortic dissection” value in [9] (FIG. 23B) is given as “prevention of premature death; also recorded: prevented the premature death”. In [10] (setting [16]), the “Final absolute aortic root diameter” value is reported as 2.09+/−0.16 mm and the “Final absolute ascending aortic diameter” value is recorded as 1.47+/−0.14 mm. Moreover, in data set [10] (SP600125 trial, versus placebo), the Aortic root growth entry is “decreased aortic root growth; also recorded: significant reduction” and the Ascending aortic growth result is given as “reduced ascending aortic growth; also recorded: significant reduction”. For the same compound, the Abdominal aortic aneurysm result in data set [11] is reported as “ameliorate abdominal aortic aneurysm”.
